Data as given in publication PMC4552778 (European Journal of Drug Metabolism and Pharmacokinetics, 2014).
Numbered stars: 1 amine (or outer) side, 2 acyl side, 3 side chain; on linkers, the order of the positions; unused ones are H or OH. Bridge positions count the residues as written; N and C are the ends. Square brackets hold non-standard residues; d marks the D form. Peptide text beside a SMILES is read from it. * marks the point of attachment. hTyr(3S-OH,4S-OH,3'-OSO3H) = N[C@H](C(=O)O)[C@H](O)[C@@H](O)c1ccc(O)c(OS(=O)(=O)O)c1; Orn(4R-OH,5R-OH) = O=C([C@H](C[C@@H](O)[C@@H](O)N[*:3])N[*:1])[*:2]; Pro(3S-OH,4S-Me) = C[C@H]1CN[C@H](C(=O)O)[C@H]1O; X1 = CCCCCOc1ccc(-c2cc(-c3ccc(C(=O)*)cc3)no2)cc1; Gln(3R-OH) = NC(=O)C[C@@H](O)[C@H](N)C(=O)O; Hyp = O=C(O)[C@@H]1C[C@@H](O)CN1

Legend:
[1] = Safety assessments; type: in vivo, human; details: six AEs reported by four subjects of 19; single 100 mg IV dose
[2] = tested on: plasma protein, primarily albumin; details: primarily to albumin; ref Astellas Pharma; Hebert et al. [2005b]; cited from earlier work
[3] = tested on: plasma protein; test: Micafungin plasma protein binding by ultrafiltration; type: in vitro ADME, human; details: 37 °C, range
[4] = ref Dowell et al. [2007]; cited from earlier work

Row | Compound | Adverse events: seriousness and relation to drug [1] | Protein bound in plasma [2] [%] | Protein binding ([3]; healthy subjects, measurable in three subjects) | Protein binding ([3]; subjects with severe hepatic dysfunction, measurable in five subjects) | Lower exposure in subjects with severe hepatic dysfunction compared with healthy controls [4] [%]
1 | CCCCCOc1ccc(-c2cc(-c3ccc(C(=O)N[C@H]4C[C@@H](O)[C@@H](O)NC(=O)[C@@H]5[C@@H](O)[C@@H](C)CN5C(=O)[C@H]([C@H](O)CC(N)=O)NC(=O)[C@H]([C@H](O)[C@@H](O)c5ccc(O)c(OS(=O)(=O)O)c5)NC(=O)[C@@H]5C[C@@H](O)CN5C(=O)[C@H]([C@@H](C)O)NC4=O)cc3)no2)cc1 [micafungin, Micafungin] (X1-[Orn(4R-OH,5R-OH)]T[Hyp][hTyr(3S-OH,4S-OH,3'-OSO3H)][Gln(3R-OH)][Pro(3S-OH,4S-Me)]; lactam 1-C) | None of these AEs was considered to be serious or to be related to micafungin | > 99 | 92.4–99.0% | 86.1–97.6% | 
2 | anidulafungin |  |  |  |  | 33
